{
  "source": "patent US12692254B2",
  "about": "“Benzimidazole inhibitors of PAD enzymes” (BRISTOL-MYERS SQUIBB COMPANY, priority 2018, dated 2026)",
  "target": "human PAD4 (hPAD4) (Homo sapiens, UniProt Q9UM07)",
  "sequence (Q9UM07 whole entry)": "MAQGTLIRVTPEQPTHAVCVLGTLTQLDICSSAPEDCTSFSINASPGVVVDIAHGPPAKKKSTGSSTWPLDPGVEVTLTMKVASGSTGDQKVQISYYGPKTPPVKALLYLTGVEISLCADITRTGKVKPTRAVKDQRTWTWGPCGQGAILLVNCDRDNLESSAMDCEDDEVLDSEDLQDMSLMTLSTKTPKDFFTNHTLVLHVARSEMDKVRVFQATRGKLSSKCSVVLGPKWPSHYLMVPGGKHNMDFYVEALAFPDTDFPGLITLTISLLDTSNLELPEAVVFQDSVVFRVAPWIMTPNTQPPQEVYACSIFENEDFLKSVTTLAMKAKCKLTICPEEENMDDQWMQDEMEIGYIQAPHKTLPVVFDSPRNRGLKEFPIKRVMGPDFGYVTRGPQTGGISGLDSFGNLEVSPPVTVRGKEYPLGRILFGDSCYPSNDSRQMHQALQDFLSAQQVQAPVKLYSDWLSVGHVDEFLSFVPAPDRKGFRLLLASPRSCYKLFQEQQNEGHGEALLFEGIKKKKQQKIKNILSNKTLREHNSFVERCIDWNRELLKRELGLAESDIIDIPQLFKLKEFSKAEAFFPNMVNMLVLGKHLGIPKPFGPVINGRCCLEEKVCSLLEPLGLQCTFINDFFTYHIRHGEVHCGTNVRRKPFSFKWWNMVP",
  "experiment": "RFMS human PAD4 functional assay (rapid-fire mass spectrum)",
  "assay_type": "biochemical",
  "details": "5 nM hPAD4 enzyme, 250 μM BAEE, 50 μM Calcium; 30 min preincubation, 90 min reaction at 37° C.",
  "how_it_was_run": "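PAD4 (10 nM) preincubated 30 min with compound (top final 50 μM), then BAEE substrate added in pH 7.5 HEPES buffer with DTT, 50 μM calcium, TPEN; 90 min at 37° C. After TCA quench, citrulline derivatized with phenyl glyoxal (4 mM final, 30 min, 37° C) and quantified by RapidFire MS against internal standard.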",
  "data": [
    {"smiles": "COc1cc(C(=O)N2C[C@H]3CC[C@@H]2[C@@H]3N)cc2nc(-c3cc4cccnc4n3CC3CC3)n(CC3CN(c4cncnc4)C3)c12", "note": "[Example 27, (1R,4R,7R)-2-{2-[1-(cyclopropylmethyl)-1H-pyrrolo[2,3-b]pyridin-2-yl]-7-methoxy-1-{[1-(pyrimidin-5-yl)azetidin-3-yl]methyl}-1H-1,3-benzodiazole-5-carbonyl}-2-azabicyclo[2.2.1]heptan-7-amine]", "values": [
      {"measurement": "IC50", "value": 72, "unit": "nM"}
    ]},
    {"smiles": "COc1cc(C(=O)N2C[C@H]3CC[C@@H]2[C@@H]3N)cc2nc(-c3cc4ccccc4n3CC3CC3)n(CC3CN(c4ccnc(C)n4)C3)c12", "note": "[Example 66, (1R,4R,7R)-2-{2-[1-(cyclopropylmethyl)-1H-indol-2-yl]-7-methoxy-1-{[1-(2-methylpyrimidin-4-yl)azetidin-3-yl]methyl}-1H-1,3-benzodiazole-5-carbonyl}-2-azabicyclo[2.2.1]heptan-7-amine]", "values": [
      {"measurement": "IC50", "value": 39, "unit": "nM"}
    ]},
    {"smiles": "COc1cc(C(=O)N2C[C@H]3CC[C@@H]2[C@@H]3N)cc2nc(-c3cc4cccnc4n3C)n(CC3CN(c4cncnc4C#N)C3)c12", "note": "[Example 60, 5-[3-({5-[(1R,4R,7R)-7-amino-2-azabicyclo[2.2.1]heptane-2-carbonyl]-7-methoxy-2-{1-methyl-1H-pyrrolo[2,3-b]pyridin-2-yl}-1H-1,3-benzodiazol-1-yl}methyl)azetidin-1-yl]pyrimidine-4-carbonitrile]", "values": [
      {"measurement": "IC50", "value": 171, "unit": "nM"}
    ]},
    {"smiles": "COc1cc(C(=O)N2CC3CCC2[C@@H]3N)cc2nc(-c3cc4ccccc4n3CC3CC3)n(Cc3cnn(-c4ccc(O)nc4)c3)c12", "note": "(stereo partly drawn) [Example 399, 5-[4-({5-[(7R)-7-amino-2-azabicyclo[2.2.1]heptane-2-carbonyl]-2-[1-(cyclopropylmethyl)-1H-indol-2-yl]-7-methoxy-1H-1,3-benzodiazol-1-yl}methyl)-1H-pyrazol-1-yl]pyridin-2-ol]", "values": [
      {"measurement": "IC50", "value": 57, "unit": "nM"}
    ]},
    {"smiles": "COc1cc(C(=O)N2CC3CCC2[C@@H]3N)cc2nc(-c3cc4cccnc4n3CC3CC3)n(CC3CN(S(=O)(=O)c4cccc(F)c4)C3)c12", "note": "(some centres unmarked) [Example 333]", "values": [
      {"measurement": "IC50", "value": 222, "unit": "nM"}
    ]},
    {"smiles": "COc1cc(C(=O)N2C[C@H]3CC[C@@H]2[C@@H]3N)cc2nc(-c3cc4cccnc4n3CC3CC3)n(CC3CN(C(=O)c4cc[nH]c(=O)c4)C3)c12", "note": "[Example 182, 4-[3-({5-[(1R,4R,7R)-7-amino-2-azabicyclo[2.2.1]heptane-2-carbonyl]-2-[1-(cyclopropylmethyl)-1H-pyrrolo[2,3-b]pyridin-2-yl]-7-methoxy-1H-1,3-benzodiazol-1-yl}methyl)azetidine-1-carbonyl]-1,2-dihydropyridin-2-one]", "values": [
      {"measurement": "IC50", "value": 204, "unit": "nM"}
    ]},
    {"smiles": "COc1cc(C(=O)N2CC3CCC2C3N)cc2nc(-c3cc4cccnc4n3CC3CC3)n(CC3CCN(C(=O)c4ccc(C#N)cc4)C3)c12", "note": "[Example 201, 4-[(3S)-3-({5-[(1R,4R,7R)-7-amino-2-azabicyc1o[2.2.1]heptane-2-carbonyl]-2-[1-(cyclopropylmethyl)-1H-pyrrolo[2,3-b]pyridin-2-yl]-7-methoxy-1H-1,3-benzodiazol-1-yl}methyl)pyrrolidine-1-carbonyl]benzonitrile]", "values": [
      {"measurement": "IC50", "value": 18, "unit": "nM"}
    ]},
    {"smiles": "COc1cc(C(=O)N2C[C@H]3CC[C@@H]2[C@@H]3N)cc2nc(-c3cc4cccnc4n3C)n(C[C@@H]3CCN(c4ncccn4)C3)c12", "note": "[Example 232, (1R,4R,7R)-2-(7-methoxy-2-{1-methyl-1H-pyrrolo[2,3-b]pyridin-2-yl}-1-{[(3S)-1-(pyrimidin-2-yl)pyrrolidin-3-yl]methyl}-1H-1,3-benzodiazole-5-carbonyl)-2-azabicyclo[2.2.1]heptan-7-amine]", "values": [
      {"measurement": "IC50", "value": 310, "unit": "nM"}
    ]},
    {"smiles": "COc1cc(C(=O)N2C[C@H]3CC[C@@H]2[C@@H]3N)cc2nc(-c3cc4ccccc4n3CC3CC3)n(Cc3ccccn3)c12", "note": "[Example 280, (1R,4R,7R)-2-{2-[1-(cyclopropylmethyl)-1H-indol-2-yl]-7-methoxy-1-[(pyridin-2-yl)methyl]-1H-1,3-benzodiazole-5-carbonyl}-2-azabicyclo[2.2.1]heptan-7-amine]", "values": [
      {"measurement": "IC50", "value": 555, "unit": "nM"}
    ]},
    {"smiles": "COc1cc(C(=O)N2C[C@H]3CC[C@@H]2[C@@H]3N)cc2nc(-c3cc4cccnc4n3CC3CC3)n(CC3CCN(C(=O)c4ccncn4)CC3)c12", "note": "[Example 233, (1R,4R,7R)-2-{2-[1-(cyclopropylmethyl)-1H-pyrrolo[2,3-b]pyridin-2-yl]-7-methoxy-1-{[1-(pyrimidine-4-carbonyl)piperidin-4-yl]methyl}-1H-1,3-benzodiazole-5-carbonyl}-2-azabicyclo[2.2.1]heptan-7-amine]", "values": [
      {"measurement": "IC50", "value": 315, "unit": "nM"}
    ]},
    {"smiles": "COc1cc(C(=O)N2C[C@H]3CC[C@@H]2[C@@H]3N)cc2nc(-c3cc4cc(Cl)ccc4n3C)n(CC3CN(c4ncccn4)C3)c12", "note": "[Example 62, (1R,4R,7R)-2-[2-(5-chloro-1-methyl-1H-indol-2-yl)-7-methoxy-1-{[1-(pyrimidin-2-yl)azetidin-3-yl]methyl}-1H-1,3-benzodiazole-5-carbonyl]-2-azabicyclo[2.2.1]heptan-7-amine]", "values": [
      {"measurement": "IC50", "value": 192, "unit": "nM"}
    ]},
    {"smiles": "COc1cc(C(=O)N2C[C@H]3CC[C@@H]2[C@@H]3N)cc2nc(-c3cc4cccnc4n3CC3CC3)n(C3CN(c4cnc(C#N)nc4)C3)c12", "note": "[Example 82, 5-(3-{5-[(1R,4R,7R)-7-amino-2-azabicyclo[2.2.1]heptane-2-carbonyl]-2-[1-(cyclopropylmethyl)-1H-pyrrolo[2,3-b]pyridin-2-yl]-7-methoxy-1H-1,3-benzodiazol-1-yl}azetidin-1-yl)pyrimidine-2-carbonitrile]", "values": [
      {"measurement": "IC50", "value": 424, "unit": "nM"}
    ]},
    {"smiles": "COc1cc(C(=O)N2CC3CCC2[C@@H]3N)cc2nc(-c3cc4cccnc4n3CC3CC3)n(Cc3cnn(-c4ccc(Cl)cn4)c3)c12", "note": "(stereo partly drawn) [Example 360, (7R)-2-(1-{[1-(5-chloropyridin-2-yl)-1H-pyrazol-4-yl]methyl}-2-[1-(cyclopropylmethyl)-1H-pyrrolo[2,3-b]pyridin-2-yl]-7-methoxy-1H-1,3-benzodiazole-5-carbonyl)-2-azabicyclo[2.2.1]heptan-7-amine]", "values": [
      {"measurement": "IC50", "value": 24, "unit": "nM"}
    ]},
    {"smiles": "COc1cc(C(=O)N2CC3CCC2[C@@H]3N)cc2nc(-c3cc4cccnc4n3CC3CC3)n(CC3CN(C(=O)[C@H]4C[C@@H]4c4ccccc4)C3)c12", "note": "(stereo partly drawn) [Example 103, (1R,4R,7R)-2-{2-[1-(cyclopropylmethyl)-1H-pyrrolo[2,3-b]pyridin-2-yl]-7-methoxy-1-({1-[(1S,2S)-2-phenylcyclopropanecarbonyl]aze-tidin-3-yl}-methyl)-1H-1,3-benzodiazole-5-carbonyl}-2-azabicyclo[2.2.1]heptan-7-amine]", "values": [
      {"measurement": "IC50", "value": 14, "unit": "nM"}
    ]}
  ]
}
